Values quoted from earlier work in patent US12036329B2, “Mucoadhesive dispersion nanoparticle system and method for production the same” (LEAD BIOTHERAPEUTICS LTD, priority 2018, dated 2024).

Tested on: alpha-adrenergic receptor
Settings: generally accepted

For `Cc1cc(C(C)(C)C)cc(C)c1CC1=NCCN1` [xylometazoline], the Duration of effect is given as 5 to 6 h.
